The experiment concerns the target [3H]Noradenaline reuptake (Rattus norvegicus, UniProt Q9WTR4). The experiment in a line: biochemical.

[3H]Noradenaline reuptake, sequence (Q9WTR4 1-597): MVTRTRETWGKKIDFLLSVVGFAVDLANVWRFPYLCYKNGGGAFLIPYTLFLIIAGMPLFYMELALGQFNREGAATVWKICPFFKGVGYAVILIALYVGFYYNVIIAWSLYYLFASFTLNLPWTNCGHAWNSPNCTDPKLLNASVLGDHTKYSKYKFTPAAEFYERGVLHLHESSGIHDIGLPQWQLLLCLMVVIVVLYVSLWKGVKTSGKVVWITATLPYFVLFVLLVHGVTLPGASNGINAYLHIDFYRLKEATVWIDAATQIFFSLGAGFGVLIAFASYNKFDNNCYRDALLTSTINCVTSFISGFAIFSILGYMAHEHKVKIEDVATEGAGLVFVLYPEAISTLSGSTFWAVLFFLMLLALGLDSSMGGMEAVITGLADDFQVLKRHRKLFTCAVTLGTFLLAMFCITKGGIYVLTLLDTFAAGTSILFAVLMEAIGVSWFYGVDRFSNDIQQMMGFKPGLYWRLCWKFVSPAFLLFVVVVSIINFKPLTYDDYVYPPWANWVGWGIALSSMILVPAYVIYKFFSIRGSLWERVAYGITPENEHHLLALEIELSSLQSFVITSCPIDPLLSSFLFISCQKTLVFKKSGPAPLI

Consider `CC(NC(C)(C)C)C(=O)c1cccc(Cl)c1` (stereo not shown) [Bupropion], for which the Ki was 2590 nM.

The record behind these values is patent publication US6376553B1, “Treatment of pain” (Knoll Pharmaceutical Company, priority 1999, dated 2002).
